Molecules are shown by their SMILES. ≈ marks a conversion by molar mass, not a printed value. Non-standard residues stand in square brackets, D forms with d. Residues, ends and D or L forms follow the SMILES beside them. Bip = N[C@@H](Cc1ccc(-c2ccccc2)cc1)C(=O)O; dBip = N[C@H](Cc1ccc(-c2ccccc2)cc1)C(=O)O

Experimental findings from patent publication US20040023853A1, “Antagonistic peptides of prostaglandin E2 receptor subtype EP4” (priority 2002, published 2004) are described below.

System in one data set: not listed separately
As to the kind of experiment: Solubility of the peptides in water. Format: physicochemical.
Conditions: not given
As to the method:
Several peptides, based on the structure of 213.15 (SEQ ID NO: 1), were synthesized using F-moc chemistry and the solid phase Merrifield peptide method. The purity of the trifluoroacetate salts of these peptides was assessed by HPLC and mass spectroscopy. The general synthesis methods will be better understood by referring to the following treatises: “Solid phase peptide synthesis”, Stewart & Young, W. H. Freeman Co. San Francisco, 1969; “The proteins”, Erikson and Merrifield, Vol. 2. (ed. Neurath & Hill), Academic Press, New York. 1976.
Consider `CC(C)C[C@@H](NC(=O)[C@@H](C)NC(=O)[C@@H](CCC(=O)O)NC(=O)[C@@H](Cc1ccc(O)cc1)NC(=O)[C@@H](CCC(=O)O)NC(=O)[C@@H](CO)NC(=O)[C@H](NC(=O)[C@H](N)Cc1ccc(-c2ccccc2)cc1)[C@H](C)O)C(=O)O` [Peptide 213.15, (bip)tseyeal] (H-[dBip][dT][dS][dE][dY][dE][dA][dL]-OH; N-terminus and C-terminus assumed), for which the “solubility (in words)” value is reported as “poor solubility”.

The same data set, now with this note: determined in water.
What is called solubility is the concentration that dissolves in the medium under given conditions. A high value points to a readily soluble substance. As to `CC(C)C[C@@H](NC(=O)[C@@H](C)NC(=O)[C@@H](CCC(=O)O)NC(=O)[C@@H](Cc1ccc(O)cc1)NC(=O)[C@@H](CCC(=O)O)NC(=O)[C@@H](CO)NC(=O)[C@H](NC(=O)[C@H](N)Cc1ccc(-c2ccccc2)cc1)[C@H](C)O)C(=O)O` [Peptide 213.15, (bip)tseyeal] (H-[dBip][dT][dS][dE][dY][dE][dA][dL]-OH; N-terminus and C-terminus assumed), the concentration in solution (solubility) was 0.2 mg/mL (≈ 0.193 mM).

In turn, `CC(C)C[C@@H](NC(=O)[C@@H](C)NC(=O)[C@@H](CCC(=O)O)NC(=O)[C@@H](Cc1ccc(O)cc1)NC(=O)[C@@H](CCC(=O)O)NC(=O)[C@@H](CO)NC(=O)[C@H](NC(=O)[C@H](N)Cc1ccc(-c2ccccc2)cc1)[C@H](C)O)C(=O)N[C@@H](CCCCN)C(=O)O` [Peptide 213.19, (bip)tseyealK] (H-[dBip][dT][dS][dE][dY][dE][dA][dL]K-OH; N-terminus and C-terminus assumed) returned a solubility of 2.8 mg/mL (≈ 2.41 mM). Consider `CC(C)C[C@@H](NC(=O)CNC(=O)[C@@H](CCC(=O)O)NC(=O)[C@@H](Cc1ccc(O)cc1)NC(=O)[C@@H](CCC(=O)O)NC(=O)[C@@H](CO)NC(=O)[C@H](NC(=O)[C@H](N)Cc1ccc(-c2ccccc2)cc1)[C@H](C)O)C(=O)N[C@@H](CCCCN)C(=O)O` [Peptide 213.20, (bip)tseyeglK] (H-[dBip][dT][dS][dE][dY][dE]G[dL]K-OH; N-terminus and C-terminus assumed), for which the solubility was 1.15 mg/mL (≈ 1 mM). On the same count and under the same terms, the same measure for `CC(C)C[C@@H](NC(=O)[C@@H](C)NC(=O)[C@@H](CCC(=O)O)NC(=O)[C@@H](Cc1ccc(O)cc1)NC(=O)[C@@H](CCC(=O)O)NC(=O)[C@@H](CO)NC(=O)[C@H](NC(=O)[C@H](N)Cc1ccc(-c2ccccc2)cc1)[C@H](C)O)C(=O)N[C@@H](CCCCN)C(=O)N[C@@H](CCCCN)C(=O)O` [Peptide 213.21, (bip)tseyealKK] (H-[dBip][dT][dS][dE][dY][dE][dA][dL]KK-OH; N-terminus and C-terminus assumed): 24.5 mg/mL (≈ 19 mM); for `CC(C)C[C@@H](NC(=O)CNC(=O)[C@@H](CCC(=O)O)NC(=O)[C@@H](Cc1ccc(O)cc1)NC(=O)[C@@H](CCC(=O)O)NC(=O)[C@@H](CO)NC(=O)[C@H](NC(=O)[C@H](N)Cc1ccc(-c2ccccc2)cc1)[C@H](C)O)C(=O)N[C@@H](CCCCN)C(=O)N[C@@H](CCCCN)C(=O)O` [Peptide 213.22, (bip)tseyeglKK] (H-[dBip][dT][dS][dE][dY][dE]G[dL]KK-OH; N-terminus and C-terminus assumed): 24.5 mg/mL (≈ 19.2 mM). Still for that read-out and setting: the same measure for `CC(C)C[C@@H](NC(=O)[C@@H](CO)NC(=O)[C@@H](CCC(=O)O)NC(=O)[C@@H](Cc1ccc(O)cc1)NC(=O)[C@@H](CCC(=O)O)NC(=O)[C@@H](CO)NC(=O)[C@H](NC(=O)[C@H](N)Cc1ccc(-c2ccccc2)cc1)[C@H](C)O)C(=O)N[C@@H](CCCCN)C(=O)O` [Peptide 213.23, (bip)tseyeslK] (H-[dBip][dT][dS][dE][dY][dE][dS][dL]K-OH; N-terminus and C-terminus assumed): 13 mg/mL (≈ 11 mM); for `CC(C)C[C@@H](NC(=O)[C@@H](CO)NC(=O)[C@@H](CCC(=O)O)NC(=O)[C@@H](Cc1ccc(O)cc1)NC(=O)[C@@H](CCC(=O)O)NC(=O)[C@@H](CO)NC(=O)[C@H](NC(=O)[C@H](N)Cc1ccc(-c2ccccc2)cc1)[C@H](C)O)C(=O)N[C@@H](CCCCN)C(=O)N[C@@H](CCCCN)C(=O)O` [Peptide 213.24, (bip)tseyeslKK] (H-[dBip][dT][dS][dE][dY][dE][dS][dL]KK-OH; N-terminus and C-terminus assumed): 23.5 mg/mL (≈ 18 mM); for `C[C@H](O)[C@@H](NC(=O)[C@H](N)Cc1ccc(-c2ccccc2)cc1)C(=O)N[C@H](CO)C(=O)N[C@H](CCC(=O)O)C(=O)N[C@H](Cc1ccc(O)cc1)C(=O)N[C@H](CCC(=O)O)C(=O)N[C@H](C)C(=O)N[C@@H](CCCCN)C(=O)O` [Peptide 213.25, (bip)tseyeaK] (H-[dBip][dT][dS][dE][dY][dE][dA]K-OH; N-terminus and C-terminus assumed): 6 mg/mL (≈ 5.71 mM).

As to `C[C@H](O)[C@@H](NC(=O)[C@H](N)Cc1ccc(-c2ccccc2)cc1)C(=O)N[C@H](CO)C(=O)N[C@H](CCC(=O)O)C(=O)N[C@H](Cc1ccc(O)cc1)C(=O)N[C@H](CCC(=O)O)C(=O)N[C@H](CO)C(=O)N[C@@H](CCCCN)C(=O)O` [Peptide 213.26, (bip)tseyesK] (H-[dBip][dT][dS][dE][dY][dE][dS]K-OH; N-terminus and C-terminus assumed), the concentration in solution (solubility) was 8 mg/mL (≈ 7.5 mM).

`CC(C)C[C@@H](NC(=O)[C@@H](C)NC(=O)[C@@H](CCC(=O)O)NC(=O)[C@@H](Cc1ccc(O)cc1)NC(=O)[C@@H](CCC(=O)O)NC(=O)[C@@H](CO)NC(=O)[C@H](NC(=O)[C@@H](N)Cc1ccc(-c2ccccc2)cc1)[C@H](C)O)C(=O)N[C@@H](CCCCN)C(=O)N[C@@H](CCCCN)C(=O)O` [Peptide 213.27, (Bip)tseyealKK] (H-[Bip][dT][dS][dE][dY][dE][dA][dL]KK-OH; N-terminus and C-terminus assumed) showed a solubility of 23 mg/mL (≈ 17.8 mM). On to `CC(C)C[C@H](NC(=O)[C@@H](C)NC(=O)[C@@H](CCC(=O)O)NC(=O)[C@@H](Cc1ccc(O)cc1)NC(=O)[C@@H](CCC(=O)O)NC(=O)[C@@H](CO)NC(=O)[C@H](NC(=O)[C@H](N)Cc1ccc(-c2ccccc2)cc1)[C@H](C)O)C(=O)N[C@@H](CCCCN)C(=O)N[C@@H](CCCCN)C(=O)O` [Peptide 213.28, (bip)tseyeaLKK] (H-[dBip][dT][dS][dE][dY][dE][dA]LKK-OH; N-terminus and C-terminus assumed), for which the solubility amounted to 20 mg/mL (≈ 15.5 mM). For `CC(C)C[C@H](NC(=O)[C@@H](C)NC(=O)[C@@H](CCC(=O)O)NC(=O)[C@@H](Cc1ccc(O)cc1)NC(=O)[C@@H](CCC(=O)O)NC(=O)[C@@H](CO)NC(=O)[C@H](NC(=O)[C@@H](N)Cc1ccc(-c2ccccc2)cc1)[C@H](C)O)C(=O)N[C@@H](CCCCN)C(=O)N[C@@H](CCCCN)C(=O)O` [Peptide 213.29, (Bip)tseyeaLKK] (H-[Bip][dT][dS][dE][dY][dE][dA]LKK-OH; N-terminus and C-terminus assumed), the concentration in solution (solubility) was 15.6 mg/mL (≈ 12.1 mM). The compound `CC(C)C[C@@H](NC(=O)[C@@H](C)NC(=O)[C@@H](CCC(=O)O)NC(=O)[C@@H](Cc1ccc(O)cc1)NC(=O)[C@@H](CCC(=O)O)NC(=O)[C@@H](CO)NC(=O)[C@H](NC(=O)[C@H](N)Cc1ccc(-c2ccccc2)cc1)[C@H](C)O)C(=O)NCC(=O)N[C@@H](CCCCN)C(=O)N[C@@H](CCCCN)C(=O)O` [Peptide 213.30, (bip)tseyealGKK] (H-[dBip][dT][dS][dE][dY][dE][dA][dL]GKK-OH; N-terminus and C-terminus assumed) had a solubility of 16 mg/mL (≈ 11.9 mM).

For the next data set, the system named is rat model of ischemic nephropathy. As to the kind of experiment: Rat model of ischemic nephropathy (bilateral renal artery occlusion): GFR, urine flow, renal plasma flow, BUN/creatinine, histology. Format: in vivo, Sprague-Dawley rats. Particulars: 213.29 1 mg/kg iv bolus; fenoldopam 0.6 μg/kg iv bolus then 0.6 μg/kg/h. On the procedure:
Bilateral clamping of the renal arteries for 30-60 minutes results in the […] of the kidneys and associated sequelae such as a dramatic decrease in glomerular filtration rate, urine output and tubular cell death. This model reproduces some important consequences of oligouric renal failure in humans. The efficacy of various 213.15 derivatives in reversing the renal damage was measured.
Sprague-Dawley rats (250-300 g) were anesthetized and the jugular vein was canulated for infusion with the peptide or with saline. In addition, the carotid artery was canulated to measure the arterial blood pressure with a pressure transducer (Gould) and to collect blood samples. The urinary bladder was canulated to collect urine. After catheterization, an infusion (1.6 ml/hr) of a mixture of [^3H] inulin (8 μCi/hr), [^14C] aminohippuric acid (0.8 μCi/hr) and anesthetics (ketamine and xylazine; 9:1 w:w; 0.095 ml/ml) was started. The animals were allowed to stabilize for a further 40 minutes. Two urine samples were collected over 10 minute periods, (from 40 to 50 minutes, and from 50 to 60 minutes) to assess the stability of the basal GFR. Blood samples were collected at 45 and 55 minutes respectively. The left and right renal arteries were then clamped for a period of 60 minutes to induce an acute renal ischemia. After the ischemic period, the animals were treated with peptides, 213.19-213.30, (1 mg/kg iv bolus) or with saline via the jugular vein. Blood and urine samples were then collected every 20 minutes for an additional period of 2 hours. Glomerular filtration rates (GFR) and urine flow rates, (measured by the [^3H] inulin method) as well as renal plasma flow (measured by the [^14C] aminohippuric acid method), were determined at different times and averaged for a 60 minute (20-80 minutes following the drug administration) period.
The efficacy of fenoldopam and 213.29, in improving kidney function in the rat model of ischemic nephropathy (described in Example 2) was compared. […]
On to `Oc1ccc(C2CNCCc3c2cc(O)c(O)c3Cl)cc1` (centres unmarked) [fenoldopam, Fenoldopam], for which the “renal perfusion and GFR” value was “only 213.29 was able to improve renal perfusion and GFR significantly”; the urine output result was “increased urine output to a similar extent”.

The same data set, now with this note: after 72 hours; 213.29 1 mg/kg iv bolus; fenoldopam 0.6 μg/kg bolus then 0.6 μg/kg/h.
Take `Oc1ccc(C2CNCCc3c2cc(O)c(O)c3Cl)cc1` (centres unmarked) [fenoldopam, Fenoldopam]: the “blood urea nitrogen (BUN) and serum creatinine levels” value was “equally efficacious in reducing BUN and creatinine levels”.
